Values joined by “and” are separate entries in the source; they are usually repeats but may differ in a detail not shown here. Identical values can stand only once. Like-named read-outs stand apart in the source and are kept apart here.
Experiments:
[1] = target: HsProRS (Homo sapiens, UniProt P07814); conditions: ref Heacock et al.; cited from earlier work
[2] = target: T1, HT-HsProRS (Homo sapiens, UniProt P07814); conditions: replicates 1-4
T1 sequence (P07814 996-1512): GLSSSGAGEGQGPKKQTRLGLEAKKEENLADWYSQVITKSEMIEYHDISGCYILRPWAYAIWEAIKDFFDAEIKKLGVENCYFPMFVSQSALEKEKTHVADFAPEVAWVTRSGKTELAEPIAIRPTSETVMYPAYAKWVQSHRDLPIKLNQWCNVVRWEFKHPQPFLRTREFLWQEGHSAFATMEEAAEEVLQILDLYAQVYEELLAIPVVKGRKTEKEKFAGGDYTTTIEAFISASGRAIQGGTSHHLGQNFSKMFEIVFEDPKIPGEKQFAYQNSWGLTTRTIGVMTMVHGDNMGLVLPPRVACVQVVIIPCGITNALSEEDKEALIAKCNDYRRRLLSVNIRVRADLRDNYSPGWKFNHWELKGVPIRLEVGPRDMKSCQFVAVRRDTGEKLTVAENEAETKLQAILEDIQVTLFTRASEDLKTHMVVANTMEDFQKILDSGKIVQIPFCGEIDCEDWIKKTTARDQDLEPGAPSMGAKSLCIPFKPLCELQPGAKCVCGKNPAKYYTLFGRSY
Experimental: (§1) A Multidrop Combi Reagent Dispenser (Thermo Fisher Scientific) was used to dispense 20 μL of 2× protein solution into each well. […] Plates were mixed on an Ika MTS 2/4 Digital Microtiter Shaker at 750 rpm for 2 min, centrifuged at 1000 × g at 25 °C for 1 min, and allowed to equilibrate for 2 h at room temperature before TR-FRET measurements were taken.
(§2) PRISM (V. 8.4.3–9.1.0, GraphPad) was used to perform non-linear regression analysis (log(inhibitor) vs. response–Variable slope (four parameters)), plot dose-response curves, and calculate IC50 values. The Cheng–Prusoff equation was used to convert IC50 to KD values (Eq. (4)):4 KD=IC50/1+[MAT379]/KD,MAT379

[3] = target: T2, HT-PfcProRS (Plasmodium falciparum, UniProt Q8I5R7)
Experimental: as §1, §2

[4] = target: T1, HT-HsProRS; test: biochemical
Experimental: as §1, §2

[5] = target: T2, HT-PfcProRS; test: biochemical
Experimental: as §1, §2

T2 sequence (Q8I5R7 249-746): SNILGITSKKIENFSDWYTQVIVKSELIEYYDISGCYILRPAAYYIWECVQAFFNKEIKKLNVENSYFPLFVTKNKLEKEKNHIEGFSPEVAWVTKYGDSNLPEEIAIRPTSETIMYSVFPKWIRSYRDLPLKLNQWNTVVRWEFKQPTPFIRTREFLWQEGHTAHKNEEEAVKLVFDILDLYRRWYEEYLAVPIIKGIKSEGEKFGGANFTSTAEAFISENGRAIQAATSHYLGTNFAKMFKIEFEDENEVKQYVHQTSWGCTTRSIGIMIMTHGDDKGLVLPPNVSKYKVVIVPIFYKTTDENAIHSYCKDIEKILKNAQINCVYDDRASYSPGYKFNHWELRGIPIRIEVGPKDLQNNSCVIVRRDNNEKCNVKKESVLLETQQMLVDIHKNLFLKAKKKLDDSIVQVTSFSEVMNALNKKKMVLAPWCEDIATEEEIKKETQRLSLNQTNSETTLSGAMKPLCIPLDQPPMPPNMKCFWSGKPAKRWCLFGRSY

O=C(O)[C@@H]1CCCN1 [proline]
Km [1]: 180 µM | Proline - […] HT-HsProRS - 1000nM MAT379 ([2]; Log[Substrate] (M) -1.000): 5.08E-02 and 1.93E-02 and 4.05E-02 and 1.78E-02 | Proline - […] HT-HsProRS - 1000nM MAT379 ([2]; Log[Substrate] (M) -1.301): 6.44E-02 and 4.43E-02 and 5.23E-02 and 4.24E-02 | Proline - […] HT-HsProRS - 1000nM MAT379 ([2]; Log[Substrate] (M) -1.602): 7.04E-02 and 4.04E-02 and 8.19E-02 and 3.22E-02 | Proline - […] HT-HsProRS - 1000nM MAT379 ([2]; Log[Substrate] (M) -1.903): 1.06E-01 and 8.64E-02 and 1.07E-01 and 6.69E-02 | Proline - […] HT-HsProRS - 1000nM MAT379 ([2]; Log[Substrate] (M) -2.204): 7.48E-02 and 1.05E-01 and 9.62E-02 and 1.28E-01 | Proline - […] HT-HsProRS - 1000nM MAT379 ([2]; Log[Substrate] (M) -2.505): 7.61E-02 and 5.21E-02 and 2.93E-02 and 5.48E-02 | Proline - […] HT-HsProRS - 1000nM MAT379 ([2]; Log[Substrate] (M) -2.806): 2.57E-02 and 8.53E-02 and 3.59E-02 and 4.74E-02 | Proline - […] HT-HsProRS - 1000nM MAT379 ([2]; Log[Substrate] (M) -3.107): 9.60E-02 and 9.41E-02 and 9.82E-02 and 9.09E-02 | Proline - […] HT-HsProRS - 1000nM MAT379 ([2]; Log[Substrate] (M) -3.408): 8.87E-02 and 1.50E-01 and 1.08E-01 and 8.19E-02 | Proline - […] HT-HsProRS - 1000nM MAT379 ([2]; Log[Substrate] (M) -3.709): 1.42E-01 and 1.36E-01 and 1.15E-01 and 1.26E-01 | Proline - […] HT-HsProRS - 1000nM MAT379 ([2]; Log[Substrate] (M) -4.010): 2.43E-01 and 1.82E-01 and 1.50E-01 and 1.67E-01 | Proline - […] HT-HsProRS - 1000nM MAT379 ([2]; Log[Substrate] (M) -4.311): 2.57E-01 and 2.23E-01 and 2.59E-01 and 1.99E-01 | Proline - […] HT-HsProRS - 1000nM MAT379 ([2]; Log[Substrate] (M) -4.612): 2.84E-01 and 3.36E-01 and 2.90E-01 and 3.09E-01 | Proline - […] HT-HsProRS - 1000nM MAT379 ([2]; Log[Substrate] (M) -4.913): 3.43E-01 and 3.30E-01 and 3.37E-01 and 3.11E-01 | Proline - […] HT-HsProRS - 1000nM MAT379 ([2]; Log[Substrate] (M) -5.214): 3.51E-01 and 3.56E-01 and 3.15E-01 and 3.55E-01 | Proline - […] HT-HsProRS - 1000nM MAT379 ([2]; Log[Substrate] (M) -5.515): 4.26E-01 and 4.08E-01 and 4.22E-01 and 4.16E-01 | Proline - […] HT-HsProRS - 1000nM MAT379 ([2]; Log[Substrate] (M) -5.816): 4.12E-01 and 3.85E-01 and 3.49E-01 and 3.26E-01 | Proline - […] HT-HsProRS - 1000nM MAT379 ([2]; Log[Substrate] (M) -6.118): 4.73E-01 and 4.43E-01 and 3.95E-01 and 3.89E-01 | fold lower affinity for PfcProRS than MAT379 [3]: ~ 4,500 fold | Kd ([4]; HsProRS (KD [nM]) mean, substrates, substrate KD, (-)): 30600 nM | Kd ([4]; KD of substrate, […] HT-HsProRS, 1000 nM MAT379): 67100 nM | Kd [5]: 457 µM

Reference: paper PMC9403976, “Elucidating the path to Plasmodium prolyl-tRNA synthetase inhibitors that overcome halofuginone resistance” (Nature Communications, 2022)
